`CCN(CCN(CC)Cc1cccc(OC)c1O)Cc1cccc(OC)c1O` [Example 13, 6,6′-Dimethoxy-2,2′-[ethylenebis(ethyliminomethylene)]diphenol] had a melting point of 71 to 72 °C.

In the case of `COc1cccc(CN(C)CCN(C)Cc2cccc(OC)c2O)c1O` [Example 12, 6,6′-Dimethoxy-2,2′-[ethylenebis(methyliminomethylene)]diphenol], the melting point fell in the range of 115 to 116 °C.

`COc1cccc(CN2CCN(Cc3cccc(OC)c3O)CC2)c1O` [Example 15, 6,6′-Dimethoxy-2,2′-(piperazine-1,4-diylbismethylene)diphenol] had a melting point of 197 to 198 °C.

Take `CN(CCCN(C)Cc1cccc(O)c1O)Cc1cccc(O)c1O` [Example 19, 3,3′-[Propane-1,3-diylbis(methyliminomethylene)]di(catechol)]: the melting point is 130 °C (dec.).

As for `Oc1cccc(CN2CCN(Cc3cccc(O)c3O)CC2)c1O` [Example 20, 3,3′-(Piperazine-1,4-diylbismethylene)di(catechol)], the melting point was 210 °C (dec.).

Take `COc1cccc(CN(C)CCCN(C)Cc2cccc(OC)c2O)c1O` [Example 14, 6,6′-Dimethoxy-2,2′-[propane-1,3-diylbis(methyliminomethylene)]diphenol]: the melting point lay in the range of 78 to 79 °C.

For the origin of these results see patent US20040138488A1, “Benzene-1 2-diol mannich bases ligands polymers and method of selective metal ions removal” (priority 2001, published 2004).
